Results reported in patent US20080096894A1, “Anti-Bacterial Compounds” (ASTON UNIVERSITY, priority 2005, published 2008).
In brackets after ≈: the same amount, converted by molar mass. Where two headings read alike, the source gives them in different places.

Assays:
Assay in all cases: MIC, agar dilution, multipoint inoculator
P. auriginosa = type: cell-based, Pseudomonas aeruginosa; settings: Pseudomonas aeruginosa, NCTC6749, 18 h; P. auriginosa NCTC 6749; upper value of MIC reading; read-out: MIC
Outline: (§1)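 Agar dilution on Mueller Hinton agar; a multipoint inoculator delivered 10^4 colony forming units per spot, and the MIC was taken for each compound.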

MRSA = type: cell-based, methicillin-resistant Staphylococcus aureus
Outline: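 Agar dilution MIC on Mueller Hinton agar, multipoint inoculator delivering 10^4 colony forming units per spot. MRSA values are ranges across ten clinical MRSA strains; S. aureus NCTC 6571 as reference strain.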

E. cloacae = type: cell-based, Enterobacter cloacae; settings: Enterobacter cloacae, NCTC11582, 18 h
Procedure: (§2) This activity was measured using a multipoint inoculator method as follows. The MIC for each compound was measured using an agar dilution method (Onda, H., et al., Int. J. Antimicrob. Agents. 18, 263 (2001)) (Mueller Hinton agar) by means of a multipoint inoculator delivering 10^4 colony forming units per spot.

S. aureus = type: cell-based, Staphylococcus aureus; settings: Staphylococcus aureus
Outline: as §1

S. marcesens = type: cell-based, Serratia marcescens; settings: Serratia marcescens, 18 h
Outline: as §1

S. epidemisis = type: cell-based, Staphylococcus epidermidis; settings: Staphylococcus epidermidis
Outline: as §1

E. faecium = type: cell-based, Enterococcus faecium; settings: Enterococcus faecium
Outline: as §1

E. coli = type: cell-based, Escherichia coli; settings: Escherichia coli, 18 h, upper value of MIC reading
Procedure: as §2

K. pneumoniae = type: cell-based, Klebsiella pneumoniae; settings: Klebsiella pneumoniae, 18 h
Outline: as §1

S. haemolyticus = type: cell-based; settings: Staphylococcus haemolyticus, 18 h
Outline: as §1

S. maltophilia = type: cell-based; settings: Stenotrophomonas maltophilia, NCTC10257, 18 h
Outline: as §1

B. bronchiseptica = type: cell-based; settings: Bordetella bronchiseptica, NCTC8344, 18 h
Outline: as §1

S. aboni = type: cell-based; settings: S. aboni NCTC 6017; upper value of MIC reading
Outline: as §1

E. faecalis = type: cell-based
Outline: as §1

[1] = NCTC11047, 18 h, S. epidemisis NCTC 11047, upper value of MIC reading, read-out: MIC

## CN(C)c1ccc(/C=N/N=C(\N)c2ccncc2)c2ccccc12 [Compound 4PYdx, N^1-[(4-dimethylamino)-1-naphthylidene]-pyridine-4-carboxamidrazone]
P. auriginosa
  MIC: 32 µg/mL (≈ 101 µM)
MRSA; MRSA Isolate 1, upper value of MIC reading, in µg/mL
  MIC: 128
MRSA; MRSA Isolate 2, upper value of MIC reading, in µg/mL
  MIC: 128
MRSA; MRSA Isolate 3, upper value of MIC reading, in µg/mL
  MIC: 128
MRSA; MRSA Isolate 4, upper value of MIC reading, in µg/mL
  MIC: 128
MRSA; MRSA Isolate 5, upper value of MIC reading, in µg/mL
  MIC: 128
MRSA; MRSA Isolate 6, upper value of MIC reading, in µg/mL
  MIC: 128
MRSA; MRSA Isolate 8, upper value of MIC reading, in µg/mL
  MIC: 128
MRSA; MRSA Isolate 9, upper value of MIC reading, in µg/mL
  MIC: 128
MRSA; MRSA Isolate 10, upper value of MIC reading, in µg/mL
  MIC: 128
MRSA; Staphylococcus aureus, 18 h
  MIC: 128 µg/mL (≈ 403 µM)
MRSA; Staphylococcus aureus, MRSA, 18 h, read-out: MRSA MIC range
  MIC: 64 to 128 µg/mL (≈ 202 to 403 µM)
E. cloacae
  MIC: 256 µg/mL (≈ 807 µM)
S. aureus; 18 h
  MIC: 128 µg/mL (≈ 403 µM)
S. aureus; NCTC6571, 18 h
  MIC: 128 µg/mL (≈ 403 µM)
S. aureus; NCTC10788, 18 h
  MIC: 128 µg/mL (≈ 403 µM)
S. marcesens
  MIC: 256 µg/mL (≈ 807 µM)
S. epidemisis; 18 h
  MIC: 128 µg/mL (≈ 403 µM)
S. epidemisis; [1]
  MIC: 64 µg/mL (≈ 202 µM)
E. faecium; 18 h
  MIC: 256 µg/mL (≈ 807 µM)
E. faecium; NCTC7171, 18 h
  MIC: 256 µg/mL (≈ 807 µM)
E. coli; E. coli W3110R+
  MIC: 128 µg/mL (≈ 403 µM)
E. coli; E. coli W3110R−
  MIC: 256 µg/mL (≈ 807 µM)
K. pneumoniae
  MIC: 256 µg/mL (≈ 807 µM)
S. haemolyticus
  MIC: 256 µg/mL (≈ 807 µM)
S. maltophilia
  MIC: 128 µg/mL (≈ 403 µM)
B. bronchiseptica
  MIC: 256 µg/mL (≈ 807 µM)
S. aboni
  MIC: 32 µg/mL (≈ 101 µM)
E. faecalis; E. faecalis EBH1, upper value of MIC reading
  MIC: 256 µg/mL (≈ 807 µM)
E. faecalis; E. faecalis Isolate 1, upper value of MIC reading
  MIC: 256 µg/mL (≈ 807 µM)
E. faecalis; E. faecalis Isolate 2, upper value of MIC reading
  MIC: 256 µg/mL (≈ 807 µM)
E. faecalis; E. faecalis Isolate 4, upper value of MIC reading
  MIC: 256 µg/mL (≈ 807 µM)
E. faecalis; Enterococcus faecalis, 18 h
  MIC: 256 µg/mL (≈ 807 µM)
E. faecalis; Enterococcus faecalis, NCTC5957, 18 h
  MIC: 256 µg/mL (≈ 807 µM)

## CC1(C)S[C@@H]2[C@H](NC(=O)[C@H](N)c3ccccc3)C(=O)N2[C@H]1C(=O)O [Amp., Ampicillin, reference compound]
P. auriginosa
  MIC: 16 µg/mL (≈ 45.8 µM)
MRSA; Staphylococcus aureus, 18 h, MRSA Isolate 1, upper value of MIC reading, read-out: MIC
  MIC: 0.12 µg/mL (≈ 0.343 µM)
MRSA; Staphylococcus aureus, 18 h, MRSA Isolate 2, upper value of MIC reading, read-out: MIC
  MIC: 8 µg/mL (≈ 22.9 µM)
MRSA; Staphylococcus aureus, 18 h, MRSA Isolate 3, upper value of MIC reading, read-out: MIC
  MIC: 8 µg/mL (≈ 22.9 µM)
MRSA; Staphylococcus aureus, 18 h, MRSA Isolate 4, upper value of MIC reading, read-out: MIC
  MIC: 8 µg/mL (≈ 22.9 µM)
MRSA; Staphylococcus aureus, 18 h, MRSA Isolate 5, upper value of MIC reading, read-out: MIC
  MIC: 8 µg/mL (≈ 22.9 µM)
MRSA; Staphylococcus aureus, 18 h, MRSA Isolate 6, upper value of MIC reading, read-out: MIC
  MIC: 8 µg/mL (≈ 22.9 µM)
MRSA; Staphylococcus aureus, 18 h, MRSA Isolate 7, upper value of MIC reading, read-out: MIC
  MIC: 8 µg/mL (≈ 22.9 µM)
MRSA; Staphylococcus aureus, 18 h, MRSA Isolate 8, upper value of MIC reading, read-out: MIC
  MIC: 8 µg/mL (≈ 22.9 µM)
MRSA; Staphylococcus aureus, 18 h, MRSA Isolate 9, upper value of MIC reading, read-out: MIC
  MIC: 8 µg/mL (≈ 22.9 µM)
MRSA; Staphylococcus aureus, 18 h, MRSA Isolate 10, upper value of MIC reading, read-out: MIC
  MIC: 8 µg/mL (≈ 22.9 µM)
E. cloacae; E. cloacae NCTC 11582, upper value of MIC reading, read-out: MIC
  MIC: 16 µg/mL (≈ 45.8 µM)
S. aureus; 18 h, S. aureus Cowan 1, upper value of MIC reading, read-out: MIC
  MIC: 0.05 µg/mL (≈ 0.143 µM)
S. aureus; NCTC6571, 18 h, S. aureus NCTC 6571, upper value of MIC reading, read-out: MIC
  MIC: 0.05 µg/mL (≈ 0.143 µM)
S. aureus; NCTC10788, 18 h, S. aureus NCTC 10788, upper value of MIC reading, read-out: MIC
  MIC: 0.05 µg/mL (≈ 0.143 µM)
S. marcesens; S. marcesens 4444, upper value of MIC reading, read-out: MIC
  MIC: 8 µg/mL (≈ 22.9 µM)
S. epidemisis; 18 h, S. epidemisis Isolate 1, upper value of MIC reading, read-out: MIC
  MIC: 8 µg/mL (≈ 22.9 µM)
S. epidemisis; [1]
  MIC: 4 µg/mL (≈ 11.4 µM)
E. faecium; 18 h, E. faecium ACTCC 10541, upper value of MIC reading, read-out: MIC
  MIC: 2 µg/mL (≈ 5.72 µM)
E. faecium; NCTC7171, 18 h, E. faecium NCTC 7171, upper value of MIC reading, read-out: MIC
  MIC: 1 µg/mL (≈ 2.86 µM)
E. coli; E. coli W3110R+
  MIC: > 16 µg/mL
E. coli; E. coli W3110R−
  MIC: 1 µg/mL (≈ 2.86 µM)
K. pneumoniae; K. pneumoniae 327, upper value of MIC reading, read-out: MIC
  MIC: > 16 µg/mL
S. haemolyticus; S. haemolyticus Isolate 1, upper value of MIC reading, read-out: MIC
  MIC: 1 µg/mL (≈ 2.86 µM)
S. maltophilia; S. maltophilia NCTC 10257, upper value of MIC reading, read-out: MIC
  MIC: 16 µg/mL (≈ 45.8 µM)
B. bronchiseptica; B. bronchiseptica NCTC 8344, upper value of MIC reading, read-out: MIC
  MIC: 1 µg/mL (≈ 2.86 µM)
S. aboni
  MIC: 0.05 µg/mL (≈ 0.143 µM)
E. faecalis; Enterococcus faecalis, 18 h, E. faecalis EBH1, upper value of MIC reading, read-out: MIC
  MIC: 0.05 µg/mL (≈ 0.143 µM)
E. faecalis; Enterococcus faecalis, 18 h, E. faecalis Isolate 1, upper value of MIC reading, read-out: MIC
  MIC: 0.05 µg/mL (≈ 0.143 µM)
E. faecalis; Enterococcus faecalis, 18 h, E. faecalis Isolate 2, upper value of MIC reading, read-out: MIC
  MIC: 0.05 µg/mL (≈ 0.143 µM)
E. faecalis; Enterococcus faecalis, 18 h, E. faecalis Isolate 3, upper value of MIC reading, read-out: MIC
  MIC: 0.05 µg/mL (≈ 0.143 µM)
E. faecalis; Enterococcus faecalis, 18 h, E. faecalis Isolate 4, upper value of MIC reading, read-out: MIC
  MIC: 2 µg/mL (≈ 5.72 µM)
E. faecalis; Enterococcus faecalis, 18 h, E. faecalis Isolate 5, upper value of MIC reading, read-out: MIC
  MIC: 2 µg/mL (≈ 5.72 µM)
E. faecalis; Enterococcus faecalis, NCTC5957, 18 h, E. faecalis NCTC 5957, upper value of MIC reading, read-out: MIC
  MIC: 2 µg/mL (≈ 5.72 µM)
